Results on ten molecules are retold here after US8003630B2, “Combinatorial therapies for the treatment of neoplasias using the opioid growth factor receptor” (The Penn State Research Foundation, priority 2004, dated 2011).

The test system of one assay is MIA PaCa-2 cells. The experiment in a line: Growth assays of MIA PaCa-2 cells (MTS assay or cell counting), Example 7. Format: cell-based, human. Conditions: for inhibition of cell number relative to controls: MIA PaCa-2, opioids 10^−6 M daily, 96 hr. The protocol:
MIA PaCa-2 and PANC-1 human pancreatic adenocarcinoma cell lines were purchased from the American Type Culture Collection (Manasass, Va.). MIA PaCa-2 cells were derived from an undifferentiated epithelial carcinoma occurring in the body and tail of the pancreas in a person. The PANC-1 cells were derived from an undifferentiated carcinoma from the head of the pancreas in a person. MIA PaCa-2 and PANC-1 cells were grown in Dulbecco's MEM (modified) media; media was supplemented with 10% fetal calf serum, 1.2% sodium bicarbonate, and antibiotics (5,000 Units/ml penicillin, 5 mg/ml streptomycin, 10 mg/ml neomycin), and the cells were maintained in a humidified atmosphere of 7% CO2/93% air at 37° C.
MIA PaCa-2 cells were seeded at equivalent amounts into either 75 cm^2 flasks, 6-well plates, or 96-well plates (Falcon) and counted 24 hr later to determine plating efficiency. Growth assays for PANC-1 cells were conducted in 6-well plates (Falcon). Compounds or sterile water were added beginning 24 hr after seeding (=0 hr), and both media and compounds were replaced daily. All drugs were prepared in sterile water and dilutions represent final concentrations of the compounds.
Cell number was recorded either by using a mitogenic bioassay, the MTS assay (Cell Titer 96 One Solution, Promega, Madison, Wis.), and measuring absorbency after 4 hr on a Biorad (Model 3550) plate reader at 490 nm, or by counting cells. For manual counts, cells were harvested with a solution of 0.25% trypsin/0.53 mM EDTA, centrif uiged, and counted with a hemacytometer. Cell viability was determined by trypan blue staining. At least two aliquots per flask or 4-10 wells/treatment were counted at each time.
A general note: Tetrazolium dyes change colour on reduction, which living cells bring about.

The subject of the next assay is SCC-1 cells. The experiment in a line: Cell proliferation assays of SCC-1 cells (MTS or cell counting), Example 8. The class given is cell-based, human. As to conditions: SCC-1; for decrease from control levels in absorbency readings: opioids 10^−6 M daily. As for the experimental part: The UM-SCC-1 cell line (SCC-1) was derived from a well-differentiated recurrent squamous cell carcinoma in the floor of the mouth of a person (25). This cell line was obtained from The University of Michigan, Cancer Research Laboratory (Thomas E. Carey, Ph.D., Director). CAL-27 human squamous cell carcinoma cell line, derived from a poorly differentiated carcinoma of the tongue in a person ([…]), was obtained from the American Type Culture Collection (Manassas, Va.). Both cell lines were grown in Dulbecco's MEM (modified) media supplemented with 10% fetal calf serum, 1.2% sodium bicarbonate, and antibiotics (5,000 Units/ml penicillin, 5 mg/ml streptomycin, 10 mg/ml neomycin). The cell cultures were maintained in a humidified atmosphere of 7% CO2/93% air at 37° C.
Cells were seeded at equivalent amounts into either 6-well or 96-well plates (Falcon) and counted 24 hr later to determine plating efficiency.
The dosage of carboplatin selected was based on previous reports (27, 28), as well as preliminary studies in our laboratory.
Cell number was recorded either by using the MTS proliferation bioassay (Cell Titer 96 One Solution, Promega, Madison, Wis.) and measuring absorbency after 4 hr on a Biorad (Model 3550) plate reader at 490 nm with a 750 nm background absorbance screening, or by directly counting cells. The MTS assay utilized 10 wells/treatment. For manual counts, cells were harvested by trypsinization with 0.25% trypsin/0.53 mM EDTA, centrif uiged, and counted with a hemacytometer. Cell viability was determined by trypan blue staining. At least two aliquots per well, and 4-10 wells/treatment, were counted at each time for manual counting.
For some experiments, the rate of growth over a 96-hr period of time was calculated using linear regression analyses. The slopes of the lines (number of cells/hr) were compared by analysis of variance. All calculations were performed with GraphPad Prism software.

For the molecule `CC(C)C[C@@H](NC(=O)[C@H](Cc1ccccc1)NC(=O)CNC(=O)[C@@H](C)NC(=O)[C@@H](N)Cc1ccc(O)cc1)C(=O)O` [DADLE, [D-Ala-D-Leu-enkephalin]], in the assay on MIA PaCa-2 cells, the “inhibition of cell number relative to controls” value is listed as “none of the other drugs utilized had any inhibitory or stimulatory effect on growth”. The “decrease from control levels in absorbency readings” value (“decrease from control levels” below) with SCC-1 cells is on record as “none of the drugs utilized had any inhibitory or stimulatory effect on growth”. `C[C@@H](NC(=O)[C@@H](N)Cc1ccc(O)cc1)C(=O)NCC(=O)N(C)[C@@H](Cc1ccccc1)C(=O)NCCO` [DAMGO, [D-Ala^2, MePhe^4, Glyol^5]-enkephalin]: the “inhibition of cell number relative to controls” value with MIA PaCa-2 cells is listed as “none of the other drugs utilized had any inhibitory or stimulatory effect on growth”. Besides, in the assay on SCC-1 cells, the “decrease from control levels” value is “none of the drugs utilized had any inhibitory or stimulatory effect on growth”.

As for `CN1CC[C@]23c4c5ccc(O)c4O[C@H]2[C@@H](O)C=C[C@H]3[C@H]1C5` [morphine], in the assay on MIA PaCa-2 cells, the “inhibition of cell number relative to controls” value is reported as “none of the other drugs utilized had any inhibitory or stimulatory effect on growth”. The “decrease from control levels” value in the assay with SCC-1 cells is listed as “none of the drugs utilized had any inhibitory or stimulatory effect on growth”.

With `C=CCN1CC[C@]23c4c5ccc(O)c4O[C@H]2C(=O)CC[C@@]3(O)[C@H]1C5` [naloxone], the “effect of naloxone on growth and growth inhibition” value in the assay with MIA PaCa-2 cells (MIA PaCa-2, 96 hr, naloxone 10^−6 M) is given as “had no effect on the growth of MIA PaCa-2 cells”; in the assay with SCC-1 cells (naloxone 10^−6 M), “had no effect on growth”. With [D-Pen^2,5]-enkephalin [DPDPE], in the assay on MIA PaCa-2 cells, the “inhibition of cell number relative to controls” value was “none of the other drugs utilized had any inhibitory or stimulatory effect on growth”. Besides, in the assay with SCC-1 cells, the “decrease from control levels” value is reported as “none of the drugs utilized had any inhibitory or stimulatory effect on growth”. “dynorphin 1-13 (YGGFLRRIRPKLK; Dynorphin A(1-13); UniProt P01213 207-219, looked up, fragment)”: the “decrease from control levels” value in the assay on SCC-1 cells is recorded as “none of the drugs utilized had any inhibitory or stimulatory effect on growth”. Consider “dynorphin A1-8 (YGGFLRRI; Dynorphin A(1-8); UniProt P01213 207-214, looked up, fragment)”, for which the “inhibition of cell number relative to controls” value in the assay with MIA PaCa-2 cells was “none of the other drugs utilized had any inhibitory or stimulatory effect on growth”. With endomorphin-1, in the assay on MIA PaCa-2 cells, the “inhibition of cell number relative to controls” value is listed as “none of the other drugs utilized had any inhibitory or stimulatory effect on growth”. Moreover, the “decrease from control levels” value in the assay on SCC-1 cells was “none of the drugs utilized had any inhibitory or stimulatory effect on growth”. Regarding endomorphin-2, the “inhibition of cell number relative to controls” value with MIA PaCa-2 cells was “none of the other drugs utilized had any inhibitory or stimulatory effect on growth”. The “decrease from control levels” value in the assay on SCC-1 cells is “none of the drugs utilized had any inhibitory or stimulatory effect on growth”. The corresponding values for “β-endorphin (YGGFMTSEKSQTPLVTLFKNAIIKNAYKKGE; Beta-endorphin; UniProt P01189 237-267, looked up)” are “none of the other drugs utilized had any inhibitory or stimulatory effect on growth” and “none of the drugs utilized had any inhibitory or stimulatory effect on growth”.
